Measurements published in US6207648A, “Methods of using cytochrome P450 reductase for the enhancement of P450-based anti-cancer gene therapy” (priority 1998, dated 2001).

System: 9L/pBabe, 9L/2B6/reductase and 9L/2C18-Met/reductase tumors in scid mice
Assay: Tumor growth delay assay in scid mice
Type: in vivo, mouse
Source text: FIGS. 19A-19D are graphs depicting the results of a tumor growth delay assay in severe combined immunodeficiency (scid) mice bearing 9L/pBabe, 9L/2B6/reductase, and 9L/2C18-Met/reductase solid tumors. Shown are the effects of CPA treatment on growth of 9L/pBabe tumors growing on the left flank of scid mice that also bear either a 9L/2B6/reductase tumor (FIG. 19A) or a 9L/2C18-Met/reductase tumor ((FIG. 19C)) on the right flank. Also shown are the effects of CPA on growth of 9L/2B6/reductase (FIG. 19B) or 9L/2C18-Met/reductasetumors ((FIG. 19D)) in these same mice. Tumor areas were measured twice a week with Vernier calipers. The arrows above the x-axis in each panel indicate the days on which CPA was given by intraperitoneal (i.p.) injection at 150 mg/kg, as described in the "Materials and Methods" section of Example 2. Data shown is mean tumor area (mm^2)±SEM for n=4 tumors per treatment group. Mice not treated with CPA died earlier than the CPA-treated mice, as indicated by the earlier decrease in number of remaining mice from n =4 (initial number of mice/group) to n=3, 2, or 1. Open circles indicate CPA-treated mice; closed circles indicate saline controls.
Tumor Growth Delay Assay: Six week old male ICR/Fox Chase/outbred immunodeficient scid mice (Paine-Murrieta, G. D., et al., Cancer Chemother Pharmacol. 40:209-214 (1997)) (Taconic Farms, Germantown, N.Y.) weighing 26-31g were given subcutaneous tumor cell injections to form solid tumors. Tumor cells were grown in culture to approximately 75% confluency, harvested by trypsin digestion, washed in PBS, resuspended in fetal bovine serum-free DMEM at a concentration of 8×10^6 cells/ml and kept on ice. Mice were shaved on both hind flanks, and then were injected subcutaneously on the left flank with 4×10^6 9L/pBabe tumor cells, and on the right flank with 4×10^6 of either 9L/2B6/reductase or 9L/2C18-Met/reductase tumor cells (8 mice/group). Tumor cell injections were in a volume of 0.5 ml of serum-free DMEM using a 1/2 inch 27 g needle and 1 ml syringe. Tumor growth was monitored twice a week using Vernier calipers (Manostat Corp., Switzerland) to measure tumor area. On days 26 and 27 after tumor cell inoculation, 4 animals from each group (four 9L/pBabe:9L/2B6/reductase mice and four 9L/pBabe:9L/2C18-Met/reductase mice) received daily intraperitoneal injections of CPA at 150 mg/kg dissolved in 0.3 ml of 0.9% NaCl. The remaining animals received saline injections. Average tumor areas ranged from 80-145 mm^2 at the time of CPA injection. Mice were given a second course of CPA treatment (150 mg/kg×2 daily injections) beginning 24-29 days after the first CPA injection, as indicated in each experiment.

O=P1(N(CCCl)CCCl)NCCCO1 (stereo not shown) [CPA, cyclophosphamide]
growth delay of 2B6 and P450 reductase-transduced tumors (150 mg/kg i.p.): > 50 days | growth inhibition of 9L/2C18-Met/reductase tumors (150 mg/kg i.p.): significant, albeit incomplete growth inhibition | growth delay for 9L/pBabe tumors (2B6 experiment, first cycle 150 mg/kg i.p. x2, days 26 and 27): no growth delay | growth delay effect against 9L/pBabe control tumors (2B6 experiment, second cycle): modest growth delay effect | growth delay of 9L/pBabe control tumors (2C18-Met experiment): 5-6 days | growth delay in RED tumors (9L/2B6/RED and 9L/2C18-Met/RED): 25 to 50 days | host toxicity (CPA-treated scid mice): no apparent increase in host toxicity | growth delay without P450 (control 9L tumors): 5 to 6 days | growth of 9L/2B6/reductase tumors (first cycle 150 mg/kg i.p. x2): fully blocked | duration of anti-tumor effect in 9L/2B6/reductase tumors (second cycle): ≥ 75 day after tumor inoculation
